Assay results: article PMC7356228, “Alvaxanthone, a Thymidylate Synthase Inhibitor with Nematocidal and Tumoricidal Activities” (Molecules, 2020)
pIC50: −log10 of the molar value. Read-outs that look alike come from different tables or passages of the source.

Assays:
Assay in all cases: Inhibition of TS-catalyzed reaction (tritium release from [5-3H]dUMP)
CeTS = biological target: T1, CeTS (Caenorhabditis elegans, UniProt Q9Y052); assay type: biochemical, C. elegans
T1 sequence (Q9Y052 1-315): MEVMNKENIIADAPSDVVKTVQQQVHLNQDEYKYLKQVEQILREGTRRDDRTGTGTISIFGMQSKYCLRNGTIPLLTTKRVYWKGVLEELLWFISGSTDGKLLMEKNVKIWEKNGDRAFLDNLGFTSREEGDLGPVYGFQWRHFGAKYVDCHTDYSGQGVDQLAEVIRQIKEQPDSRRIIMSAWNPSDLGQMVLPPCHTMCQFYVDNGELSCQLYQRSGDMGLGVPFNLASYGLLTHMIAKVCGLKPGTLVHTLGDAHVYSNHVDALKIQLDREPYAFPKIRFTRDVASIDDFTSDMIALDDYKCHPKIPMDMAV
Text: (§1) The recombinant human, rat, mouse, T. spiralis and C. elegans TS proteins were produced, purified and separated into phosphorylated and non-phosphorylated fraction, as previously described. TS activity was monitored, following tritium release from [5-^3H]dUMP, and its inhibition studied as earlier reported.

TsTS = TsTS (Trichinella spiralis, UniProt Q9NDD3); assay type: biochemical, T. spiralis; settings: 20 µM dUMP, 250 µM meTHF; for pIC50: IC50 Assessment; for remaining activity at 1000 µM: compound 1000 µM
Text: as §1

mTS = biological target: T2, mTS (Mus musculus, UniProt P07607); assay type: biochemical; settings: for remaining activity at 100 µM: compound 100 µM
T2 construct: made in house
Text: as §1

hTS = biological target: T3, hTS (Homo sapiens, UniProt P04818); assay type: biochemical
T3 construct: made in house
Text: as §1

[1] = 20 µM dUMP, 250 µM meTHF, read-out: IC50 Assessment
[2] = compound 100 µM, 20 µM dUMP, 250 µM meTHF, read-out: % Remaining Activity
[3] = compound 1000 µM, 20 µM dUMP, 250 µM meTHF, read-out: % Remaining Activity
[4] = 20 µM dUMP, 250 µM meTHF, read-out: % Remaining Activity
[5] = compound 10 µM, 20 µM dUMP, 250 µM meTHF
[6] = compound 667 µM, 20 µM dUMP, 250 µM meTHF
[7] = IC50 Assessment, 20 µM dUMP, 250 µM meTHF
[8] = compound 50 µM, 20 µM dUMP, 250 µM meTHF
[9] = compound 500 µM, 20 µM dUMP, 250 µM meTHF

Chain of TsTS (Q9NDD3 entry or part of it): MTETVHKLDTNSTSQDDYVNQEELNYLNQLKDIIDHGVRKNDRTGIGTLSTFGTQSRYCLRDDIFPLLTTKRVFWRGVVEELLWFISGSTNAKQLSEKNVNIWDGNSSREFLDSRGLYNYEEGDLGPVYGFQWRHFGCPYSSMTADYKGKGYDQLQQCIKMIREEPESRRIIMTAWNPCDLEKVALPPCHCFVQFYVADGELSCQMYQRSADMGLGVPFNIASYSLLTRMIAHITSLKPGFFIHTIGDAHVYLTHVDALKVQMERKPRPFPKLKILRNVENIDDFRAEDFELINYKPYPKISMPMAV
T2 sequence (P07607 whole entry): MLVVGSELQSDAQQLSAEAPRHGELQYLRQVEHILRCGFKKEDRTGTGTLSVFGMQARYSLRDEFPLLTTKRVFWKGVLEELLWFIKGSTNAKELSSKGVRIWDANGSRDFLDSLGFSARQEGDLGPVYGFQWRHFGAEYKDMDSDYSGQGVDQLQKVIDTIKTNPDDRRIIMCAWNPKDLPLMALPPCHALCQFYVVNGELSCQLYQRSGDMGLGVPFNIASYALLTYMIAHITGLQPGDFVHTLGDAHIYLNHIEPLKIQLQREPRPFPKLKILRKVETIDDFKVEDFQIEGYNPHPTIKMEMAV
T3 sequence (P04818 whole entry): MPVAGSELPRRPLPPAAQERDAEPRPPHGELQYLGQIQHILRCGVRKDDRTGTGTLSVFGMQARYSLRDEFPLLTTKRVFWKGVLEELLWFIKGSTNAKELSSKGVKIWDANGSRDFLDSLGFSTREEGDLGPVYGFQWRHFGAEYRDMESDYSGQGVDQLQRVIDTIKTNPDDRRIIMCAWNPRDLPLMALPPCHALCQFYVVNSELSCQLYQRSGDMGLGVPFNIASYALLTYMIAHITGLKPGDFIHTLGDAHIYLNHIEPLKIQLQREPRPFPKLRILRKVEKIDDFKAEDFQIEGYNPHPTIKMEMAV

Structure (SMILES) | pIC50 (CeTS; [1]) | remaining activity at 100 µM (CeTS; [2]) | remaining activity at 1000 µM (CeTS; [3]) | pIC50 (TsTS) | remaining activity at 1000 µM (TsTS) | remaining activity at 1000 µM (mTS; [3]) | remaining activity at 100 µM (hTS; [2]) | remaining activity at 1000 µM (hTS; [3]) | pIC50 (mTS; [1]) | further results
CC(C)=CCc1c(O)ccc2c1OC(c1ccccc1)CC2=O (racemic) [(±)-7-Hydro-xy-8-C-prenyl flavanone] | < 4.00 | 65% | 3% | < 4.00 | 25% | 2% | 74% | 7% | – | remaining activity at 100 µM (TsTS; compound 100 µM): 90%; remaining activity at 100 µM (mTS; [4]): 71%
CC1(C)CCc2cc3c(cc2O1)OC(c1ccccc1)CC3=O (stereo not shown) [6-Chromane-O-7-flavanone (11), 6-Chromane-O-7-flavanone] | – | 24% | – | < 3.00 | 85% | 10% | 37% | – | – | remaining activity at 10 µM (CeTS; [5]): 100%; remaining activity at 100 µM (mTS; [4]): 91%; remaining activity at 10 µM (hTS; [5]): 100%
O=C(OCC1=C[C@@H](O)[C@@H]2C=CO[C@@H](O[C@@H]3O[C@H](CO)[C@@H](O)[C@H](O)[C@H]3O)[C@H]12)c1ccc(O)cc1 [Agnuside (8), Agnuside] | < 4.00 | 100% | 36% | < 3.00 | 63% | 72% | 90% | 47% | < 3.00 | –
COc1c(O)cc2oc(-c3ccccc3)c(O)c(=O)c2c1O [Alnusin (12), Alnusin] | < 3.00 | – | 80% | – | > 100% | > 100% | 85% | 30% | – | –
O=C1c2c(O)cccc2C([C@@H]2O[C@H](CO)[C@@H](O)[C@H](O)[C@H]2O)c2cc(CO)cc(O)c21 (stereo partly shown) [Aloin (2), Aloin] | < 4.00 | 83% | 36% | < 3.00 | 93% | 95% | 94% | 49% | < 3.00 | –
COC(=O)/C=C/C(C)=C\C=C\C(C)=C\C=C\C=C(C)\C=C\C=C(C)\C=C\C(=O)O [Bixin (6), Bixin] | – | – | – | – | – | – | – | – | < 3.18 | remaining activity at 67 µM (CeTS; compound 67 µM, 20 µM dUMP, 250 µM meTHF): 93%; remaining activity at 667 µM (CeTS; [6]): 46%; remaining activity at 67 µM (TsTS; compound 67 µM): 76%; remaining activity at 667 µM (TsTS; compound 667 µM): 47%; remaining activity at 667 µM (mTS; [6]): 73%; remaining activity at 667 µM (hTS; compound 667 µM (highest obtained concentration), 20 µM dUMP, 250 µM meTHF): > 100%
O=C(/C=C/c1ccc(O)c(O)c1)O[C@@H]1C[C@](O)(C(=O)O)C[C@@H](O)[C@H]1O [Chlorogenic acid (3), Chlorogenic acid] | < 3.00 | – | 82% | < 3.00 | 94% | 83% | – | 76% | < 3.00 | pIC50 (hTS; [1]): < 3.00
CC12CCC3C(C1)c1c(cc(O)c(C(=O)c4ccccc4)c1OC3(C)C)O2 (stereo not shown) [Clusiacitran A (9), Clusiacitran A] | – | – | – | < 3.00 | 95% | 62% | 89% | 47% | – | remaining activity at 100 µM (CeTS): 88%; remaining activity at 1000 µM (CeTS): 44%; pIC50 (CeTS; [7]): < 4.00; pIC50 (mTS; [7]): < 3.00
COc1cc(/C=C/C(=O)CC(=O)/C=C/c2ccc(O)c(OC)c2)ccc1O [Curcumin (1), Curcumin] | – | – | – | < 3.30 | – | – | – | – | – | remaining activity at 50 µM (CeTS; [8]): 84%; remaining activity at 500 µM (CeTS; [9]): 30%; remaining activity at 500 µM (TsTS; compound 500 µM): 73%; remaining activity at 50 µM (mTS; [8]): 83%; remaining activity at 500 µM (mTS; [9]): 37%; remaining activity at 50 µM (hTS; [8]): 86%; remaining activity at 500 µM (hTS; [9]): 20%
CC1=C[C@]2(O)C(=O)[C@H](C)C[C@@H]3[C@H](CC[C@](C)(O)C[C@H]2C1=O)C3(C)C [Jatrowediol (10), Jatrowediol] | – | – | – | < 3.00 | 95% | – | – | – | – | remaining activity at 1000 µM (CeTS): 77%; pIC50 (CeTS; [7]): < 3.00; remaining activity at 1000 µM (mTS): 80%; pIC50 (mTS; [7]): < 3.00; remaining activity at 100 µM (hTS): 100%; remaining activity at 1000 µM (hTS): 43%
